Experimental data from ChEMBL document CHEMBL1127360, “Antipodal alpha-N-(methyl through decyl)-N-normetazocines (5,9 alpha-dimethyl-2'-hydroxy-6,7-benzomorphans): in vitro and in vivo properties” (J Med Chem, 1994).
pKi: −log10 of the molar value. The source made the active and inactive calls. The rule behind the calls is not given here.

Key:
[1] = molecular target: T1, Glutamate NMDA receptor (Rattus norvegicus) (UniProt P35439+Q00959+Q00960+Q00961+Q62645+Q8VHN2+Q9R1M7); assay: Ratio of potencies against PCP receptor to that of Mu receptor of rat; assay type: protein-complex assay
[2] = tested on: Cercopithecidae; assay: Ratio of potencies against Mu receptor of monkey to that of rat
[3] = molecular target: Kappa-type opioid receptor (Homo sapiens) (UniProt P41145); assay: Ratio of potencies of (+) and (-) enantiomers against kappa receptors in monkeys; settings: Cercopithecidae; target entry is the homologue from another species
Kappa-type opioid receptor (Homo sapiens), sequence (P41145 whole entry): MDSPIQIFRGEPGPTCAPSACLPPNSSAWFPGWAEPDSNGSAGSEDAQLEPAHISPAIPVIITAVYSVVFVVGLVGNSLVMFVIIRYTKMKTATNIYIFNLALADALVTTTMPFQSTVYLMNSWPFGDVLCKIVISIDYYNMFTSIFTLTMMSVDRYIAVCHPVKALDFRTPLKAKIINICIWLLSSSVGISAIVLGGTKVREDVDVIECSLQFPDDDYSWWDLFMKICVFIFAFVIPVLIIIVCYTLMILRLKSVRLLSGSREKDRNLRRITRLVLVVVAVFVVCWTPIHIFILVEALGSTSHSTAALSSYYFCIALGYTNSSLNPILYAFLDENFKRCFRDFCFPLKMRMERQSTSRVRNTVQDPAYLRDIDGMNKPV

[4] = molecular target: T1, Glutamate NMDA receptor (Rattus norvegicus); assay: Ratio of potencies of (+) and (-) enantiomers against PCP in rats
[5] = tested on: Mus musculus; assay: (§1) In vivo antinociceptive activity was tested through tail flick (TF) with this compound in mouse; assay type: functional; design: unit not given beside the values
[6] = tested on: Mus musculus; assay: In vivo antinociceptive activity was tested through injecting 2 mg/kg ip phenylquinone, activity calculated by total number of abdominal-stretches; assay type: functional, Abdomen; settings: route intraperitoneal
[7] = tested on: Mus musculus; assay: In vivo for its narcotic antagonistic activity of the antinociceptive effect in mouse; assay type: functional, organism-based
[8] = molecular target: Mu-type opioid receptor (Homo sapiens) (UniProt P35372); assay: Ratio of potencies against Mu receptor to that of kappa receptor of monkey; settings: Cercopithecidae; target entry is the homologue from another species
Mu-type opioid receptor (Homo sapiens), sequence (P35372 whole entry): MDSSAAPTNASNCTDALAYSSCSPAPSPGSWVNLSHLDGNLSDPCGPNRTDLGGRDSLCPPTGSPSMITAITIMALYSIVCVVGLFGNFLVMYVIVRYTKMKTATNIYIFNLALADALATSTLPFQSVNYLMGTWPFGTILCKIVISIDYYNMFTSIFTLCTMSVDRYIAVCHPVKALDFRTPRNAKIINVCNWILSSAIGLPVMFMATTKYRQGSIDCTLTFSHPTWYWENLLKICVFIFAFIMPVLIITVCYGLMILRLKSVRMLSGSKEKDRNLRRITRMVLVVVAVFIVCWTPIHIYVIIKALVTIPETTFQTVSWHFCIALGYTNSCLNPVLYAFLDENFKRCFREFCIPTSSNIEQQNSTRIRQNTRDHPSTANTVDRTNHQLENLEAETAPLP

[9] = tested on: Mus musculus; assay: In vivo antinociceptive activity through hot plate (HP) by placing mouse on hot plate, and calculating number of times it jumps or licks its paw in 5 seconds; assay type: functional
[10] = molecular target: Mu-type opioid receptor (Rattus norvegicus, UniProt P33535); assay: Inhibition against mu receptor using [3H]DAMGO in homogenate of rat brain cerebellum; assay type: tissue-based
Mu-type opioid receptor, sequence (P33535 whole entry): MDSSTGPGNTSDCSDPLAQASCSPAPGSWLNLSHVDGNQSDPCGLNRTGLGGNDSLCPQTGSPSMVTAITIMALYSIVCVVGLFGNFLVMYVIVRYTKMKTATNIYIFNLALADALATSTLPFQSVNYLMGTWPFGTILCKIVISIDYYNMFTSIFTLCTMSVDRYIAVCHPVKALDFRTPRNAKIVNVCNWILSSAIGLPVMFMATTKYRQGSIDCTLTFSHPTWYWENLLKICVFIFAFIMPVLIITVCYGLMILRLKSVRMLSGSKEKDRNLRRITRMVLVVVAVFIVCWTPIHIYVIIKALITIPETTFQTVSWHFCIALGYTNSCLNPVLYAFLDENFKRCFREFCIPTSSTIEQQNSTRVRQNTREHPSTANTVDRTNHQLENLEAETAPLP

[11] = molecular target: Mu-type opioid receptor (Homo sapiens) (UniProt P35372); assay: Ratio of potencies of (+) and (-) enantiomers against Mu receptors in monkeys; settings: Cercopithecidae; target entry is the homologue from another species
[12] = organism: Cavia porcellus; assay: Ratio of potencies against sigma receptor to that of Mu receptor of rat
[13] = molecular target: Glutamate NMDA receptor; assay: Inhibition using [3H]TCP in homogenate of rat brain; assay type: tissue-based
[14] = organism: Cavia porcellus; assay: Ratio of potencies against PCP receptor to that of sigma receptor
[15] = molecular target: Mu-type opioid receptor (Rattus norvegicus) (UniProt P33535); assay: Ratio of potencies of (+) and (-) enantiomers against Mu receptors in Rats
Mu-type opioid receptor (Rattus norvegicus), sequence (P33535 whole entry): as above

[16] = tested on: Mus musculus; assay: as §1; assay type: functional, organism-based
[17] = tested on: Mus musculus; assay: In vivo antinociceptive activity through injecting 2 mg/kg ip phenylquinone, activity calculated by total number of abdominal-stretches per group counted over a 1 min period; Inactive; assay type: functional, organism-based; design: dose 2 mg/kg
[18] = tested on: Mus musculus; assay: In vivo antinociceptive activity was tested through hot plate (HP) and counting jumps or paw licks; assay type: functional, organism-based
[19] = tested on: Mus musculus; assay: In vivo antinociceptive activity at 30 mg/kg was tested through hot plate (HP) by placing mouse on hot plate, and calculating number of times it jumps or licks its paw in 5 seconds; assay type: functional
[20] = tested on: Mus musculus; assay: In vivo antinociceptive activity at 10 mg/kg was tested through hot plate (HP) by placing mouse on hot plate, and calculating number of times it jumps or licks its paw in 5 seconds; assay type: functional
[21] = tested on: Mus musculus; assay: Compound was tested in vivo for its narcotic antagonistic activity of the antinociceptive effect in mouse; assay type: functional
[22] = tested on: Mus musculus; assay: In vivo antinociceptive activity at 1 mg/kg was tested through hot plate (HP) by placing mouse on hot plate, and calculating number of times it jumps or licks its paw in 5 seconds; assay type: functional
[23] = tested on: Mus musculus; assay: In vivo antinociceptive activity at 20 mg/kg was tested through injecting 2 mg/kg ip phenylquinone, activity calculated by total number of abdominal-stretches per group counted over a 1 min period; assay type: functional
[24] = tested on: Mus musculus; assay: Compound was tested in vivo for its narcotic antagonistic activity of the antinociceptive effect in mouse at 30 mg/kg; assay type: functional
[25] = tested on: Mus musculus; assay: In vivo antinociceptive activity at 30 mg/kg was tested through injecting 2 mg/kg ip phenylquinone, activity calculated by total number of abdominal-stretches per group counted over a 1 min period; assay type: functional
[26] = molecular target: Sigma non-opioid intracellular receptor 1 (Homo sapiens, UniProt Q99720); assay: Binding affinity against sigma receptor was determined
Sigma non-opioid intracellular receptor 1, sequence (Q99720 whole entry): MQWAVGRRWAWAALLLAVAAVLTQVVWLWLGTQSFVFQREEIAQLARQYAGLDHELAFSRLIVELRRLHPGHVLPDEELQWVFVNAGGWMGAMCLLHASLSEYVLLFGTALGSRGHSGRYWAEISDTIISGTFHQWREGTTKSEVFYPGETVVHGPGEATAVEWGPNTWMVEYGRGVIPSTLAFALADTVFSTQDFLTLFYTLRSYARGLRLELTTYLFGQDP

[27] = tested on: Mus musculus; assay: In vivo antinociceptive activity was tested through tail flick (TF) with this compound in mouse at 30 mg/kg concentration; assay type: functional

SMILES: CCCCCCCN1CC[C@]2(C)c3cc(O)ccc3CC1[C@@H]2C
- Ratio [1]: 640
- Ratio [2]: 3.1
- Ratio [3]: 23
- Ratio [4]: 0.5
- Activity [5]: 1.7
- Activity [6]: 0.13
- Activity [7]: inactive
- Ratio [8]: 1.2
- Activity [9]: 2.4
- pKi [10]: 8.06
- Ratio [11]: 9.6
- Ratio [12]: 5.6
- pKi [13]: 5.25
- Ratio [14]: 115
- Ratio [15]: 28

SMILES: CCCCCCCCCN1CC[C@]2(C)c3cc(O)ccc3CC1[C@H]2C
- Ratio [1]: 3
- Ratio [2]: 0.1
- Activity [16]: inactive
- Activity [7]: inactive
- Ratio [8]: 18
- pKi [10]: 5.86
- Ratio [12]: 0.009
- pKi [13]: 5.38
- Activity [17]: inactive
- Ratio [14]: 346
- Activity [18]: inactive

SMILES: CCN1CC[C@]2(C)c3cc(O)ccc3CC1[C@@H]2C
- inhibition in vivo at 30 mg/kg [19]: 25%
- Activity [6]: 1.4
- inhibition in vivo at 10 mg/kg [20]: 25%
- Activity [21]: 3.7
- Activity [16]: inactive
- pKi [10]: 7.49
- pKi [13]: 5.73
- inhibition in vivo at 1 mg/kg [22]: 13%

SMILES: CCCCCCCCCN1CC[C@]2(C)c3cc(O)ccc3CC1[C@@H]2C
- Ratio [1]: 41
- Ratio [2]: 1.2
- Ratio [3]: 3.2
- Ratio [4]: 0.7
- Activity [16]: inactive
- Activity [7]: inactive
- Ratio [8]: 3.9
- pKi [10]: 6.82
- Ratio [11]: 0.7
- Ratio [12]: 0.2
- pKi [13]: 5.21
- Activity [17]: inactive
- Ratio [14]: 193
- Ratio [15]: 9.1
- Activity [18]: inactive

SMILES: CCCN1CC[C@]2(C)c3cc(O)ccc3CC1[C@@H]2C
- Ratio [1]: 35
- Ratio [2]: 0.2
- Ratio [3]: 226
- Ratio [4]: 2.3
- Activity [6]: 22
- Activity [21]: 0.4
- Activity [16]: inactive
- Ratio [8]: 1.3
- pKi [10]: 8.12
- Ratio [11]: 629
- Ratio [12]: 97
- pKi [13]: 6.58
- Ratio [14]: 0.4
- Ratio [15]: 687
- Activity [18]: inactive

SMILES: CCCCCCN1CC[C@@]2(C)c3cc(O)ccc3CC1[C@H]2C
- Ratio [1]: 9.2
- Ratio [2]: 0.4
- Activity [5]: 21.3
- Activity [6]: 5.6
- Activity [7]: inactive
- Ratio [8]: 7.1
- pKi [10]: 6.10
- Ratio [12]: 0.003
- pKi [13]: 5.14
- Ratio [14]: 3180
- Activity [18]: inactive

SMILES: C[C@@H]1C2Cc3ccc(O)cc3[C@]1(C)CCN2C
- Ratio [1]: 0.008
- Ratio [2]: 0.3
- Activity [16]: inactive
- Ratio [8]: 2.7
- pKi [10]: 5.30
- Ratio [12]: 0.3
- pKi [13]: 7.39
- Inhibition [23]: 43%
- Ratio [14]: 0.03
- Activity [18]: inactive

SMILES: CCCN1CC[C@@]2(C)c3cc(O)ccc3CC1[C@H]2C
- Ratio [1]: 0.1
- Ratio [2]: 0.2
- inhibition in vivo at 30 mg/kg [24]: 20%
- Activity [16]: inactive
- Ratio [8]: 0.5
- pKi [10]: 5.28
- Ratio [12]: 0.008
- pKi [13]: 6.22
- Activity [17]: inactive
- Ratio [14]: 14.1
- Activity [18]: inactive

SMILES: CCCCCN1CC[C@]2(C)c3cc(O)ccc3CC1[C@@H]2C
- Activity [5]: 1.3
- Activity [6]: 0.2
- Activity [7]: inactive
- Activity [9]: 2.4
- pKi [10]: 7.80
- pKi [13]: 5.61

SMILES: CCCCCCCN1CC[C@]2(C)c3cc(O)ccc3CC1[C@H]2C
- Ratio [1]: 11
- Ratio [2]: 1.1
- Activity [5]: 12.9
- Activity [6]: 3.5
- Activity [7]: inactive
- Ratio [8]: 2.8
- Activity [9]: 11.5
- pKi [10]: 6.61
- Ratio [12]: 0.008
- pKi [13]: 5.59
- Ratio [14]: 1350

SMILES: CCCCN1CC[C@]2(C)c3cc(O)ccc3CC1[C@@H]2C
- Ratio [1]: 47
- Ratio [2]: 0.3
- Ratio [3]: 160
- Ratio [4]: 1.5
- Activity [21]: 1.5
- Activity [16]: inactive
- Ratio [8]: 1.4
- pKi [10]: 7.89
- Ratio [11]: 365
- Ratio [12]: 8
- pKi [13]: 6.21
- Inhibition [25]: 40%
- Ratio [14]: 5.9
- Ratio [15]: 221
- Activity [18]: inactive

SMILES: CCCCCCCCCCN1CC[C@]2(C)c3cc(O)ccc3CC1[C@H]2C
- Ratio [1]: 0.9
- Ratio [2]: 0.2
- Activity [16]: inactive
- Activity [7]: inactive
- Ratio [8]: 3
- pKi [10]: 5.34
- Ratio [12]: 0.02
- pKi [13]: 5.38
- Activity [17]: inactive
- Ratio [14]: 61
- Activity [18]: inactive

SMILES: C=CCN1CC[C@]2(C)c3cc(O)ccc3CC1[C@@H]2C (single isomer, unassigned; (+))
- pKi [26]: 6.91

SMILES: CCCCCN1CC[C@@]2(C)c3cc(O)ccc3CC1[C@H]2C
- Activity [5]: 20.4
- Activity [6]: 1
- Activity [7]: inactive
- Activity [9]: 38
- pKi [10]: 5.76
- pKi [13]: 5.77

SMILES: CCN1CC[C@@]2(C)c3cc(O)ccc3CC1[C@H]2C
- Activity [6]: 33.5
- Activity [16]: inactive
- Activity [7]: inactive
- pKi [10]: 5.00
- pKi [13]: 6.89
- Activity [18]: inactive

SMILES: CCCCCCCCN1CC[C@]2(C)c3cc(O)ccc3CC1[C@@H]2C
- Ratio [1]: 266
- Ratio [2]: 2
- Ratio [3]: 29
- Ratio [4]: 0.1
- Activity [5]: 10.3
- Activity [6]: 0.5
- Activity [7]: inactive
- Ratio [8]: 1.3
- Activity [9]: 5.4
- pKi [10]: 7.52
- Ratio [11]: 2.7
- Ratio [12]: 1.2
- pKi [13]: 5.10
- Ratio [14]: 228
- Ratio [15]: 17

SMILES: C[C@H]1C2Cc3ccc(O)cc3[C@@]1(C)CCN2C
- Ratio [1]: 108
- Ratio [2]: 0.4
- Ratio [3]: 222
- Ratio [4]: 0.03
- Activity [5]: 0.8
- Activity [6]: 0.3
- Activity [7]: inactive
- Ratio [8]: 4
- Activity [9]: 0.6
- pKi [10]: 7.96
- Ratio [11]: 328
- Ratio [12]: 1640
- pKi [13]: 5.92
- Ratio [14]: 0.07
- Ratio [15]: 452

SMILES: CCCCCCCCCCN1CC[C@]2(C)c3cc(O)ccc3CC1[C@@H]2C
- Ratio [1]: 20
- Ratio [2]: 2
- Ratio [3]: 1
- Ratio [4]: 0.4
- Activity [16]: inactive
- Activity [7]: inactive
- Ratio [8]: 2.3
- pKi [10]: 6.29
- Ratio [11]: 0.8
- Ratio [12]: 0.08
- pKi [13]: 5.00
- Activity [17]: inactive
- Ratio [14]: 263
- Ratio [15]: 9.1
- Activity [18]: inactive

SMILES: CCCCCCN1CC[C@]2(C)c3cc(O)ccc3CC1[C@@H]2C
- Ratio [1]: 712
- Ratio [2]: 8.3
- Ratio [3]: 53
- Ratio [4]: 2.2
- Activity [5]: 1.1
- Activity [6]: 0.13
- Activity [7]: inactive
- Ratio [8]: 1.1
- Activity [9]: 2.4
- pKi [10]: 8.33
- Ratio [11]: 8.2
- Ratio [12]: 8.5
- pKi [13]: 5.48
- Ratio [14]: 84
- Ratio [15]: 169

SMILES: C[C@H]1C2Cc3ccc(O)cc3[C@@]1(C)CCN2
- inhibition in vivo at 30 mg/kg [19]: 38%
- Activity [7]: inactive
- pKi [10]: 7.64
- pKi [13]: 6.71
- Inhibition [25]: 66%
- inhibition in vivo at 30 mg/kg [27]: 13%

SMILES: C=CCN1CCC2c3cc(O)ccc3CC1C2C (single isomer, unassigned; (-))
- pKi [26]: 5.37

SMILES: CCCCCCCCN1CC[C@]2(C)c3cc(O)ccc3CC1[C@H]2C
- Ratio [1]: 1.5
- Ratio [2]: 0.3
- Activity [6]: 7.8
- Activity [7]: inactive
- Ratio [8]: 14.2
- Activity [9]: 11.1
- pKi [10]: 6.28
- Ratio [12]: 0.005
- pKi [13]: 6.10
- inhibition in vivo at 30 mg/kg [27]: 14%
- Ratio [14]: 281

SMILES: CCCCN1CC[C@@]2(C)c3cc(O)ccc3CC1[C@H]2C
- Ratio [1]: 0.3
- Ratio [2]: 0.4
- Activity [16]: inactive
- Activity [7]: inactive
- Ratio [8]: 0.6
- pKi [10]: 5.54
- Ratio [12]: 0.002
- pKi [13]: 6.05
- Inhibition [25]: 43%
- Ratio [14]: 149
- Activity [18]: inactive
